Experimental data reported in paper PMC11740379, “Novel Enyne-Modified 1,4-Thiazepines as Epidermal Growth Factor Receptor Inhibitors: Anticancer and Computational Studies” (ACS Omega, 2024).
Like-named read-outs stand apart in the source and are kept apart here.

Tests used:
Format in all cases: cell-based, human
HEK-293 cells = assay: XTT cytotoxicity assay, non-tumorigenic cells; conditions: XTT assay, exposure time of the IC50 not stated (24, 48, 72 h tested)
Protocol: Human cell lines for breast cancer (MCF-7), lung cancer (A549), prostate cancer (PC-3), and nontumorigenic HEK-293 were sourced from the Health Protection Agency (U.K.) and the Interlab Cell Line Collection (Italy). The cells were cultured in RPMI medium (Sigma) supplemented with 10% heat-inactivated fetal bovine serum, 1% penicillin, and 1% L-glutamine, and incubated in a humidified CO2 atmosphere at 37 °C.
(§1) To evaluate the cytotoxic effects of TZEPs, which were dissolved in dimethyl sulfoxide (DMSO), the XTT assay (2,3-bis(2-methoxy-4-nitro-5-sulfophenyl)-2H-tetrazolium-5-carboxanilide) was employed. Cells were plated in 96-well plates at a density of 10^4 cells per well and exposed to varying concentrations of TZEPs (ranging from 1 to 250 μM) for 24, 48, and 72 h. Following the incubation, 100 μL of XTT was added to each well, and the plates were incubated for an additional 4 h at 37 °C. The resulting color change was measured by recording the absorbance at 570 nm using a microplate reader (Tecan).
The IC50 values, which indicate the concentration of the compound required to inhibit 50% of cancer cell proliferation, were determined using Biosoft CalcuSyn 2.1 software. […] Conversely, an SI less than 1 means the drug is more toxic to normal cells than to target cells, which is undesirable in therapeutic contexts. In the literature, a selectivity index of 2 or higher is generally considered significant, implying that the compound selectively targets diseased cells with relatively low toxicity to healthy cells.[15]

MCF-7 cells [1] = assay: XTT cytotoxicity assay, breast cancer cells; conditions: for IC50: read-out: IC50, breast cancer (MCF-7); for Selectivity index (SI), breast cancer (MCF-7): versus normal cells HEK-293
Protocol: (§2) The cells were cultured in RPMI medium (Sigma) supplemented with 10% heat-inactivated fetal bovine serum, 1% penicillin, and 1% L-glutamine, and incubated in a humidified CO2 atmosphere at 37 °C.
as §1, with “Cells were plated in 96-well plates at a density of 10^4 cells per well and exposed to varying concentrations of TZEPs (ranging from 1 to 250 μM) for 24, 48, and 72 h.” left out
(§3) Conversely, an SI less than 1 means the drug is more toxic to normal cells than to target cells, which is undesirable in therapeutic contexts.

A549 cells [2] = assay: XTT cytotoxicity assay, lung cancer cells; conditions: for IC50: read-out: IC50, lung cancer (A549); for Selectivity index (SI), lung cancer (A549): versus normal cells HEK-293
Protocol: as §2
as §1, with “Cells were plated in 96-well plates at a density of 10^4 cells per well and exposed to varying concentrations of TZEPs (ranging from 1 to 250 μM) for 24, 48, and 72 h.” left out
as §3

PC-3 cells [3] = assay: XTT cytotoxicity assay, prostate cancer cells; conditions: for IC50: read-out: IC50, prostate cancer (PC-3); for Selectivity index (SI), prostate cancer (PC-3): versus normal cells HEK-293
Protocol: as §2
as §1, with “Cells were plated in 96-well plates at a density of 10^4 cells per well and exposed to varying concentrations of TZEPs (ranging from 1 to 250 μM) for 24, 48, and 72 h.” left out
as §3

A549 cells [4] = assay: Annexin V-FITC/PI apoptosis detection by flow cytometry; conditions: A549, IC50 concentration, 72 h
Excerpt: (§4) Annexin V, a protein with a high affinity for phosphatidylserine (PS), is pivotal in detecting apoptosis. Normally, PS is located in the inner leaflet of the plasma membrane, but during apoptosis, it moves to the outer leaflet, making it a key marker for apoptotic cells.[16] Annexin V binds specifically to PS on the surface of these cells. A secondary dye like propidium iodide (PI) is used to distinguish apoptotic cells from viable ones with intact membranes. We can identify and quantify viable cells (annexin V–, PI–) and apoptotic cells (annexin V+, PI+) by analyzing fluorescence patterns. Here, we employed the FITC Annexin V Apoptosis Detection Kit I from BD Pharmingen. Cells were seeded at a density of 10^6 cells per well in a 6-well plate and exposed to IC50 concentration of TZEP7 for 72 h. Following treatment, cells were rinsed with cold PBS, resuspended in 1 mL of 1× Binding Buffer, and stained with 5 μL of Annexin V FITC and 5 μL of PI. After vortexing, the samples were incubated at room temperature (25 °C) for 15 min in the dark. Postincubation, 400 μL of 1× Binding Buffer was added to each sample, and apoptosis was measured using a BD Accuri C6 Flow Cytometer. Cisplatin was used as an apoptosis-inducing reference drug.

MCF-7 cells [5] = assay: as above; conditions: MCF-7, IC50 concentration, 72 h
Excerpt: as §4

PC-3 cells [6] = assay: as above; conditions: PC-3, IC50 concentration, 72 h
Excerpt: as §4

[7] = Homo sapiens, MCF7, XTT assay, exposure time of the IC50 not stated (24, 48, 72 h tested)
[8] = Homo sapiens, A549, XTT assay, exposure time of the IC50 not stated (24, 48, 72 h tested)
[9] = Homo sapiens, PC-3, XTT assay, exposure time of the IC50 not stated (24, 48, 72 h tested)
[10] = XTT assay, exposure time of the IC50 not stated (24, 48, 72 h tested)

`C(#Cc1ccccc1)/C=C1/CN=C(c2ccsc2)C=C(c2ccccc2)S1` [TZEP8] was tested, and the IC50 (HEK-293 cells; Homo sapiens, HEK293) was 99.2 ± 3 µM, the IC50 (MCF-7 cells [1]; [7]) was 85.7 ± 2.4 µM and the “Selectivity index (SI), breast cancer (MCF-7)” value (from here on “Selectivity index … (MCF-7)”) (MCF-7 cells [1]) was 1.15. The IC50 (A549 cells [2]; [8]) was 112.8 ± 0.8 µM, the “Selectivity index (SI), lung cancer (A549)” value (shortened to “Selectivity index … (A549)”) (A549 cells [2]) was 0.87 and the IC50 (PC-3 cells [3]; [9]) was 95.4 ± 1.2 µM. The “Selectivity index (SI), prostate cancer (PC-3)” value (“Selectivity index (SI) … (PC-3)” for short) (PC-3 cells [3]) was 1.03.

In the case of `Cc1ccc(C2=NC/C(=C/C#Cc3ccccc3)SC(c3ccccc3)=C2)cc1` [TZEP9], the IC50 (HEK-293 cells; Homo sapiens, HEK293) is reported as 98.8 ± 0.7 µM, the IC50 (MCF-7 cells [1]; [7]) is reported as 78.4 ± 1.8 µM and the “Selectivity index … (MCF-7)” value (MCF-7 cells [1]) is reported as 1.26. The IC50 (A549 cells [2]; [8]) was 96.6 ± 1.4 µM, the “Selectivity index … (A549)” value (A549 cells [2]) was 1.02 and the IC50 (PC-3 cells [3]; [9]) was 103 ± 2 µM. The “Selectivity index (SI) … (PC-3)” value (PC-3 cells [3]) was 0.96.

With `CC(C)(C)c1ccc(C2=NC/C(=C/C#Cc3ccccc3)SC(c3ccccc3)=C2)cc1` [TZEP10] the IC50 (HEK-293 cells; Homo sapiens, HEK293) was 89 ± 0.5 µM, the IC50 (MCF-7 cells [1]; [7]) was 76.3 ± 0.8 µM and the “Selectivity index … (MCF-7)” value (MCF-7 cells [1]) was 1.16. For the same compound, the IC50 (A549 cells [2]; [8]) was 64.4 ± 1.8 µM, the “Selectivity index … (A549)” value (A549 cells [2]) was 1.38 and the IC50 (PC-3 cells [3]; [9]) was 73.7 ± 3.2 µM. The “Selectivity index (SI) … (PC-3)” value (PC-3 cells [3]) was 1.20.

With `COc1ccc(C2=NC/C(=C/C#Cc3ccccc3)SC(c3ccccc3)=C2)cc1` [TZEP11] the IC50 (HEK-293 cells; Homo sapiens, HEK293) was 112 ± 3 µM, the IC50 (MCF-7 cells [1]; [7]) was 98.2 ± 2.8 µM and the “Selectivity index … (MCF-7)” value (MCF-7 cells [1]) was 1.14. For the same compound, the IC50 (A549 cells [2]; [8]) was 108 ± 2.6 µM, the “Selectivity index … (A549)” value (A549 cells [2]) was 1.04 and the IC50 (PC-3 cells [3]; [9]) was 81.6 ± 3.4 µM. For the same compound, the “Selectivity index (SI) … (PC-3)” value (PC-3 cells [3]) was 1.37.

In the case of `Cc1ccc(C#C/C=C2/CN=C(c3ccccc3)C=C(c3ccccc3)S2)cc1` [TZEP12], the IC50 (HEK-293 cells; Homo sapiens, HEK293) is reported as 110 ± 1.2 µM, the IC50 (MCF-7 cells [1]; [7]) is reported as 92.6 ± 1 µM and the “Selectivity index … (MCF-7)” value (MCF-7 cells [1]) is reported as 1.19. The IC50 (A549 cells [2]; [8]) was 90.5 ± 0.7 µM, the “Selectivity index … (A549)” value (A549 cells [2]) was 1.21 and the IC50 (PC-3 cells [3]; [9]) was 101 ± 3 µM. For the same compound, the “Selectivity index (SI) … (PC-3)” value (PC-3 cells [3]) was 1.09.

`N.N.[Cl][Pt][Cl]` [cisplatin, Cisplatin, reference compound] was tested, and the IC50 (HEK-293 cells) was 15 ± 0.7 µM, the IC50 (MCF-7 cells [1]; [10]) was 14.7 ± 0.6 µM and the “Selectivity index … (MCF-7)” value (MCF-7 cells [1]) was 1.02. For the same compound, the IC50 (A549 cells [2]; [10]) was 13.4 ± 1.4 µM, the “Selectivity index … (A549)” value (A549 cells [2]) was 1.11 and the IC50 (PC-3 cells [3]; [10]) was 12.8 ± 2.8 µM. The “Selectivity index (SI) … (PC-3)” value (PC-3 cells [3]) was 1.17, the “cells in early apoptosis” value (A549 cells [4]) was 13.4% and the “cells in late apoptosis” value (A549 cells [4]) was 70.8%. The “cells in early apoptosis” value (MCF-7 cells [5]) was 18.7%, the “cells in late apoptosis” value (MCF-7 cells [5]) was 72.2% and the “cells in early apoptosis” value (PC-3 cells [6]) was 16.2%. For the same compound, the “cells in late apoptosis” value (PC-3 cells [6]) was 75.4%.

`C#Cc1cccc(Nc2ncnc3cc(OCCOC)c(OCCOC)cc23)c1` [erlotinib, Erlotinib, reference compound] gave an IC50 (HEK-293 cells; Homo sapiens, HEK293) of 12.9 ± 3 µM, an IC50 (MCF-7 cells [1]; Homo sapiens, MCF7, 72 h) of 13.4 ± 2 µM and an IC50 (A549 cells [2]; Homo sapiens, A549, 72 h) of 18.4 ± 0.4 µM. It also gave an IC50 (PC-3 cells [3]; Homo sapiens, PC-3, 72 h) of 15.5 ± 30.8 µM.
